Reference: ChEMBL document CHEMBL3751718, “Synthesis and biological evaluation of lipid-like 5-(2-hydroxyethyl)-4-methyl-1,3-thiazole derivatives as potential anticancer and antimicrobial agents” (Medchemcomm, 2015)
Values after ≈ are worked out from the molar mass of the structure shown. Active and inactive are the calls of the source. The rule behind the calls is not given here.

What was measured:
MG-22A [1] = assay: Induction of nitric oxide production in mouse MG-22A cells by Griess assay; assay type: functional; parameters: concentration or dose not given beside the values
CCRF S-180 [2] = assay: Antitumor activity against mouse S180 cells allografted into ICR mouse assessed as tumor growth inhibition at 1.5 mg/kg, sc administered on day 1,2,3 and 7 after 24 hrs tumor transplantation measured on day 9; assay type: functional, organism-based
[3] = Cytotoxicity against mouse NIH/3T3 cells assessed as cell viability at 6.25 to 50 ug/ml by neutral red-based assay; settings: nih3t3
Staphylococcus aureus [4] = assay: Antibacterial activity against Staphylococcus aureus MSCL 334 at 5 mg/ml after 24 hrs by agar dish diffusion method; assay type: functional
Bacillus cereus [5] = assay: Antibacterial activity against Bacillus cereus MSCL 330 at 5 mg/ml after 24 hrs by agar dish diffusion method; assay type: functional; settings: MSCL 330, 24 h, read-out: DIZ
Escherichia coli [6] = assay: Antibacterial activity against Escherichia coli MSCL 332 at 5 mg/ml after 24 hrs by agar dish diffusion method; assay type: functional; settings: MSCL 332, 24 h, read-out: DIZ
Pseudomonas aeruginosa [7] = assay: Antibacterial activity against Pseudomonas aeruginosa MSCL 331 at 5 mg/ml after 24 hrs by agar dish diffusion method; assay type: functional
Proteus mirabilis [8] = assay: Antibacterial activity against Proteus mirabilis MSCL 590 at 5 mg/ml after 24 hrs by agar dish diffusion method; assay type: functional; settings: MSCL 590, 24 h, read-out: DIZ
Candida albicans [9] = assay: Antifungal activity against Candida albicans MSCL 378 at 5 mg/ml after 48 hrs by agar dish diffusion method; assay type: functional; settings: MSCL 378, 48 h, read-out: DIZ
Aspergillus niger [10] = assay: Antifungal activity against Aspergillus niger MSCL 324 at 5 mg/ml after 48 hrs by agar dish diffusion method; assay type: functional
Staphylococcus aureus [11] = assay: Antibacterial activity against Staphylococcus aureus MSCL 334 at 10 mg/ml after 24 hrs by agar dish diffusion method; assay type: functional
Bacillus cereus [12] = assay: Antibacterial activity against Bacillus cereus MSCL 330 at 10 mg/ml after 24 hrs by agar dish diffusion method; assay type: functional; settings: MSCL 330, 24 h, read-out: DIZ
Escherichia coli [13] = assay: Antibacterial activity against Escherichia coli MSCL 332 at 10 mg/ml after 24 hrs by agar dish diffusion method; assay type: functional; settings: MSCL 332, 24 h, read-out: DIZ
Pseudomonas aeruginosa [14] = assay: Antibacterial activity against Pseudomonas aeruginosa MSCL 331 at 10 mg/ml after 24 hrs by agar dish diffusion method; assay type: functional
Proteus mirabilis [15] = assay: Antibacterial activity against Proteus mirabilis MSCL 590 at 10 mg/ml after 24 hrs by agar dish diffusion method; assay type: functional; settings: MSCL 590, 24 h, read-out: DIZ
Candida albicans [16] = assay: Antifungal activity against Candida albicans MSCL 378 at 10 mg/ml after 48 hrs by agar dish diffusion method; assay type: functional; settings: MSCL 378, 48 h, read-out: DIZ
Aspergillus niger [17] = assay: Antifungal activity against Aspergillus niger MSCL 324 at 10 mg/ml after 48 hrs by agar dish diffusion method; assay type: functional; settings: MSCL 324, 48 h, read-out: DIZ
CCRF S-180 [18] = assay: Antitumor activity against mouse S180 cells allografted into ICR mouse assessed as tumor growth inhibition at 2.5 mg/kg, sc administered on day 1,2,3 and 7 after 24 hrs tumor transplantation measured on day 9; assay type: functional; settings: CCRF S-180, sc, read-out: TGI
HT-1080 [19] = assay: Induction of nitric oxide production in human HT1080 cells by Griess assay; assay type: functional; parameters: concentration or dose not given beside the values
[20] = (§1) Cytotoxicity against human HT1080 cells assessed as cell viability at 6.25 to 50 ug/ml by crystal violet-based assay; assay type: functional; settings: HT-1080, read-out: LC50 (the source's name)
[21] = (§2) Cytotoxicity against human HT1080 cells assessed as cell viability at 6.25 to 50 ug/ml after 72 hrs by MTT assay; assay type: functional; settings: HT-1080, 72 h, read-out: LC50 (the source's name)
MG-22A [22] = assay: Cytotoxicity against mouse MG-22A cells assessed as cell viability at 6.25 to 50 ug/ml by crystal violet-based assay; assay type: functional
MG-22A [23] = assay: Cytotoxicity against mouse MG-22A cells assessed as cell viability at 6.25 to 50 ug/ml after 72 hrs by MTT assay; assay type: functional
Candida albicans [24] = assay: Antifungal activity against Candida albicans MSCL 378 after 24 hrs by broth dilution method; assay type: functional; settings: MSCL 378, 24 h
Candida albicans [25] = assay: Fungicidal activity against Candida albicans MSCL 378 incubated for 24 hrs followed by colony transfer to agar plates for 24 hrs by colony counting based assay; assay type: functional; settings: MSCL 378, 24 h, read-out: MFC99.9
Aspergillus niger [26] = assay: Antifungal activity against Aspergillus niger MSCL 324 after 24 hrs by broth dilution method; assay type: functional; settings: MSCL 324, 24 h
Aspergillus niger [27] = assay: Fungicidal activity against Aspergillus niger MSCL 324 incubated for 24 hrs followed by colony transfer to agar plates for 24 hrs by colony counting based assay; assay type: functional; settings: MSCL 324, 24 h, read-out: MFC99.9
Candida albicans [28] = assay: Antifungal activity against Candida albicans MSCL 378 at 2 mg/ml after 48 hrs by agar dish diffusion method; assay type: functional; settings: MSCL 378, 48 h, read-out: DIZ
Aspergillus niger [29] = assay: Antifungal activity against Aspergillus niger MSCL 324 at 2 mg/ml after 48 hrs by agar dish diffusion method; assay type: functional; settings: MSCL 324, 48 h, read-out: DIZ
Aspergillus niger [30] = assay: Antifungal activity against Aspergillus niger MSCL 324 at 4 mg/ml after 48 hrs by agar dish diffusion method; assay type: functional; settings: MSCL 324, 48 h, read-out: DIZ
Staphylococcus aureus [31] = assay: Antibacterial activity against Staphylococcus aureus MSCL 334 at 2 mg/ml after 24 hrs by agar dish diffusion method; assay type: functional, organism-based
Staphylococcus aureus [32] = assay: Antibacterial activity against Staphylococcus aureus MSCL 334 at 4 mg/ml after 24 hrs by agar dish diffusion method; assay type: functional, organism-based
Bacillus cereus [33] = assay: Antibacterial activity against Bacillus cereus MSCL 330 at 2 mg/ml after 24 hrs by agar dish diffusion method; assay type: functional, organism-based
Bacillus cereus [34] = assay: Antibacterial activity against Bacillus cereus MSCL 330 at 4 mg/ml after 24 hrs by agar dish diffusion method; assay type: functional, organism-based
Escherichia coli [35] = assay: Antibacterial activity against Escherichia coli MSCL 332 at 2 mg/ml after 24 hrs by agar dish diffusion method; assay type: functional, organism-based
Escherichia coli [36] = assay: Antibacterial activity against Escherichia coli MSCL 332 at 4 mg/ml after 24 hrs by agar dish diffusion method; assay type: functional, organism-based
Pseudomonas aeruginosa [37] = assay: Antibacterial activity against Pseudomonas aeruginosa MSCL 331 at 2 mg/ml after 24 hrs by agar dish diffusion method; assay type: functional, organism-based
Pseudomonas aeruginosa [38] = assay: Antibacterial activity against Pseudomonas aeruginosa MSCL 331 at 4 mg/ml after 24 hrs by agar dish diffusion method; assay type: functional, organism-based
Proteus mirabilis [39] = assay: Antibacterial activity against Proteus mirabilis MSCL 590 at 2 mg/ml after 24 hrs by agar dish diffusion method; assay type: functional, organism-based
Proteus mirabilis [40] = assay: Antibacterial activity against Proteus mirabilis MSCL 590 at 4 mg/ml after 24 hrs by agar dish diffusion method; assay type: functional, organism-based
HT-1080 [41] = assay: as §1; assay type: functional
HT-1080 [42] = assay: as §2; assay type: functional
[43] = read-out: LC50 (the source's name)

CCCCCCCCCCCOCCc1sc[n+](C)c1C.[I-]
Activity (MG-22A [1]): 150%
inhibition (CCRF S-180 [2]): inactive
LC50 [3]: 93300 nM
zone of inhibition at 5000 µg/mL (Staphylococcus aureus [4]; MSCL 334, 24 h, read-out: DIZ): 29 mm
zone of inhibition at 5000 µg/mL (Bacillus cereus [5]): 25 mm
zone of inhibition at 5000 µg/mL (Escherichia coli [6]): 25 mm
zone of inhibition at 5000 µg/mL (Pseudomonas aeruginosa [7]; MSCL 331, 24 h, read-out: DIZ): 11 mm
zone of inhibition at 5000 µg/mL (Proteus mirabilis [8]): 17 mm
zone of inhibition at 5000 µg/mL (Candida albicans [9]): 28 mm
diameter of the inhibition zone (DIZ) (Aspergillus niger [10]): inactive
zone of inhibition at 10000 µg/mL (Staphylococcus aureus [11]; MSCL 334, 24 h, read-out: DIZ): 32 mm
zone of inhibition at 10000 µg/mL (Bacillus cereus [12]): 26 mm
zone of inhibition at 10000 µg/mL (Escherichia coli [13]): 27 mm
zone of inhibition at 10000 µg/mL (Pseudomonas aeruginosa [14]; MSCL 331, 24 h, read-out: DIZ): 12 mm
zone of inhibition at 10000 µg/mL (Proteus mirabilis [15]): 18 mm
zone of inhibition at 10000 µg/mL (Candida albicans [16]): 30 mm
zone of inhibition at 10000 µg/mL (Aspergillus niger [17]): 17 mm
inhibition in vivo at 2.5 mg/kg (CCRF S-180 [18]): 56%
Activity (HT-1080 [19]): 150%
CC50 [20]: 1820 nM
CC50 [21]: 1820 nM
CC50 (MG-22A [22]; [43]): 1360 nM
CC50 (MG-22A [23]; [43]): 1820 nM

OC(Cn1cncn1)(Cn1cncn1)c1ccc(F)cc1F [FLUCONAZOLE]
MIC (Candida albicans [24]): 32 µg/mL (≈ 104 µM)
MFC (Candida albicans [25]): > 256 µg/mL
MIC (Aspergillus niger [26]): 8 µg/mL (≈ 26.1 µM)
MFC (Aspergillus niger [27]): > 256 µg/mL
zone of inhibition at 2000 µg/mL (Candida albicans [28]): 10 mm
zone of inhibition at 2000 µg/mL (Aspergillus niger [29]): 11 mm
zone of inhibition at 4000 µg/mL (Aspergillus niger [30]): 18 mm
diameter of the inhibition zone (DIZ) (Staphylococcus aureus [31]): inactive
diameter of the inhibition zone (DIZ) (Staphylococcus aureus [32]): inactive
diameter of the inhibition zone (DIZ) (Bacillus cereus [33]): inactive
diameter of the inhibition zone (DIZ) (Bacillus cereus [34]): inactive
diameter of the inhibition zone (DIZ) (Escherichia coli [35]): inactive
diameter of the inhibition zone (DIZ) (Escherichia coli [36]): inactive
diameter of the inhibition zone (DIZ) (Pseudomonas aeruginosa [37]): inactive
diameter of the inhibition zone (DIZ) (Pseudomonas aeruginosa [38]): inactive
diameter of the inhibition zone (DIZ) (Proteus mirabilis [39]): inactive
diameter of the inhibition zone (DIZ) (Proteus mirabilis [40]): inactive

Cc1c(CCO)sc[n+]1C.[I-]
Activity (MG-22A [1]): 3%
LC50 [3]: 643 µg/mL
diameter of the inhibition zone (DIZ) (Staphylococcus aureus [4]): inactive
zone of inhibition at 5000 µg/mL (Bacillus cereus [5]): 8 mm
zone of inhibition at 5000 µg/mL (Escherichia coli [6]): 10 mm
diameter of the inhibition zone (DIZ) (Pseudomonas aeruginosa [7]): inactive
zone of inhibition at 5000 µg/mL (Proteus mirabilis [8]): 8 mm
zone of inhibition at 5000 µg/mL (Candida albicans [9]): 13 mm
zone of inhibition at 5000 µg/mL (Aspergillus niger [10]; MSCL 324, 48 h, read-out: DIZ): 9 mm
diameter of the inhibition zone (DIZ) (Staphylococcus aureus [11]): inactive
zone of inhibition at 10000 µg/mL (Bacillus cereus [12]): 8 mm
zone of inhibition at 10000 µg/mL (Escherichia coli [13]): 10 mm
diameter of the inhibition zone (DIZ) (Pseudomonas aeruginosa [14]): inactive
zone of inhibition at 10000 µg/mL (Proteus mirabilis [15]): 8 mm
zone of inhibition at 10000 µg/mL (Candida albicans [16]): 13 mm
zone of inhibition at 10000 µg/mL (Aspergillus niger [17]): 15 mm
Activity (HT-1080 [19]): 2%
LC50 (HT-1080 [41]): inactive
LC50 (HT-1080 [42]): inactive
LC50 (MG-22A [22]): inactive
LC50 (MG-22A [23]): inactive
